This passage reports Activity, IC50 and ID50 results from ChEMBL document CHEMBL3227995, “Synthesis of aza homologues of folic acid” (J Med Chem, 1979).

Series [1] deals with Mus musculus. The series is described as follows: Toxicity in mouse L1210 cells allografted BDF1 mouse at 60 mg/kg, ip. It is filed as organism-based. On the set-up: dose 60 mg/kg, route intraperitoneal. To be noted: in vivo.
For series [2], the system named is CCRF-CEM. Description: Cytotoxicity against human CCRF-CEM cells at 10 ug/ml. The format is functional, cell-based.
Series [3] relates to Lacticaseibacillus casei. The series is described as follows: Antimicrobial activity against Lactobacillus casei ATCC 7469. The format is functional. To be noted: read-out: ID50 (the source's name).
The target in series [4] is T1, Thymidylate synthase (Lactobacillus casei) (UniProt P00469).
T1 sequence (whole entry): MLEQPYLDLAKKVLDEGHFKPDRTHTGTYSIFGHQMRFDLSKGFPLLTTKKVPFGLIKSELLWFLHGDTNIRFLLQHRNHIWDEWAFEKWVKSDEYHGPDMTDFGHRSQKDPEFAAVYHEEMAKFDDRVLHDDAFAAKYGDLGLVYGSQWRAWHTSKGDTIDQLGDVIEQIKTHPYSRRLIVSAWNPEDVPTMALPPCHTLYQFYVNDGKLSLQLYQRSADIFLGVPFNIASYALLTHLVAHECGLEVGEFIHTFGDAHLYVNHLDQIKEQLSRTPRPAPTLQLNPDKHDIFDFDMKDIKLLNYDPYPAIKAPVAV
The series is described as follows: Inhibition of Lactobacillus casei thymidylate synthetase. The note with it: Lacticaseibacillus casei.

The subject of series [5] is L1210. Description: Antitumor activity against mouse L1210 cells allografted in BDF1 mouse assessed as increase of life span at non-toxic dosed administered as ip on day 1, 4 and 7. It is filed as functional, organism-based.
Series [6] concerns Lacticaseibacillus casei. The series is described as follows: Antimicrobial activity against Lactobacillus casei ATCC 7469 at 2 ug/ml. It is filed as functional, organism-based.
Series [7] concerns Pediococcus. The series is described as follows: Increase of Pediococcus cerevisiae ATCC 8081 growth relative to leucovorin. It is filed as functional.
In series [8] the test system is Enterococcus faecium. Description: Increase of Streptococcus faecium ATCC 8043 growth relative to folic acid. It is filed as functional.
Series [9] concerns CCRF-CEM. Description: Cytotoxicity against human CCRF-CEM cells. It is filed as functional. The note with it: read-out: ID50 (the source's name).

Each structure is given as a SMILES string. In brackets after ≈: the same amount, converted by molar mass. Activity calls are given as the source filed them. The rule behind the calls is not given here.

Regarding `Nc1nc2ncc(CNc3ccc(NC(=O)NC(CC(=O)O)C(=O)O)cc3)nc2c(=O)[nH]1` (racemic), the Activity result in [1] is “Toxic”. Moreover, the result in series [2] and in series [5] was inactive. The IC50 in series [3] is 1.6 µg/mL (≈ 3.62 µM). Further, the ID50 in [4] worked out at 1.8 ×10⁻⁴ M.

For `COC(=O)C[C@H](NC(=O)Nc1ccc(NCc2cnc3nc(NC(C)=O)[nH]c(=O)c3n2)cc1)C(=O)OC`, the result in series [6] and in series [2] was inactive.

As to `Nc1nc2ncc(CNc3ccc(NC(=O)NC(CCC(=O)O)C(=O)O)cc3)nc2c(=O)[nH]1` (racemic), the outcome in series [6], in series [2] and in series [5] was inactive. The Activity result in [1] is “Toxic”; in series [7] it was 0.5%; in series [8], 2%. The ID50 in [4] was determined as 1.8 ×10⁻⁴ M.

As for `COC(=O)C[C@H](NC(=O)Nc1ccc(/N=C/c2cnc3nc(NC(C)=O)[nH]c(=O)c3n2)cc1)C(=O)OC`, the result in [6] and in series [2] was inactive.

Consider `COC(=O)CC[C@H](NC(=O)Nc1ccc(NCc2cnc3nc(NC(C)=O)[nH]c(=O)c3n2)cc1)C(=O)OC`, for which the outcome in series [6] and in [2] was inactive.

Take `COC(=O)CC[C@H](NC(=O)Nc1ccc(/N=C/c2cnc3nc(NC(C)=O)[nH]c(=O)c3n2)cc1)C(=O)OC`: the result in [6] and in [2] was inactive.

Take `CN(Cc1cnc2nc(N)nc(N)c2n1)c1ccc(C(=O)N[C@@H](CCC(=O)O)C(=O)O)cc1` [METHOTREXATE]: the IC50 in [3] is 0.01 µg/mL (≈ 0.022 µM); in [9], 0.02 µg/mL (≈ 0.044 µM).
